Results taken from patent US11034724B2, “Crystalline salt forms of Boc-D-Arg-DMT-Lys-(Boc)-Phe-NH2” (Stealth BioTherapeutics Corp., priority 2017, dated 2021).
Converted amounts (≈) assume the structure as drawn. Like-named read-outs stand apart in the source and are kept apart here. Non-standard residues stand in square brackets, D forms with d. Residues, ends and D or L forms follow the SMILES beside them. *: point of attachment. Dmt = Cc1cc(O)cc(C)c1C[C@H](N)C(=O)O; Boc = CC(C)(C)OC(=O)*

Assays:
Type in all cases: physicochemical
[1] = Approximate solubility assessment (solvent addition technique); conditions: dichloromethane, 35° C. for dichloromethane, read-out: Approximate Solubility (50° C.)
[2] = as above
Procedure: Approximate Solubility Assessment of Boc-D-Arg-DMT-Lys(Boc)-Phe-NH2
The solubility screen was carried out as follows: • Approximately 20 mg of Boc-D-Arg-DMT-Lys(Boc)-Phe-NH2 was weighed out into each vial. • Each solvent/solvent mixture was added to the appropriate vial in 5 volume aliquots (100 μL). • In between additions, the sample was stirred at 50° C.
The solubility assessment was estimated by a solvent addition technique, heating at 50° C. between aliquots (see Table 9).

[3] = Gravimetric vapour sorption (GVS), hygroscopicity
Procedure: Gravimetric Vapour Sorption (GVS)
Approximately 15 mg of sample was placed into a mesh vapour sorption balance pan and loaded into an IGASorp Moisture Sorption Analyser balance by Hiden Analytical. The sample was subjected to a ramping profile from 40-90% relative humidity (RH) at 10% increments, maintaining the sample at each step until a stable weight had been achieved (98% step completion). After completion of the sorption cycle, the sample was dried using the same procedure to 0% RH, then subjected to a second ramping profile from 0-90% relative humidity. After completion of the second sorption cycle, the sample was dried using the same procedure to 0% RH, and finally taken back to the starting point of 40% RH. The weight change during the sorption/desorption cycles were plotted, allowing for the hygroscopic nature of the sample to be determined.

## Cc1cc(O)cc(C)c1C[C@H](NC(=O)[C@@H](CCCNC(=N)N)NC(=O)OC(C)(C)C)C(=O)N[C@@H](CCCCNC(=O)OC(C)(C)C)C(=O)N[C@@H](Cc1ccccc1)C(N)=O [Boc-D-Arg-DMT-Lys(Boc)-Phe-NH2] (Boc-[dR][Dmt]K(Boc)F-NH2)
[1]
  solubility: < 10 mg/mL
[2]; 2-butanol, solvent 2-Butanol, 50° C., read-out: Approximate Solubility (50° C.)
  solubility: 17 mg/mL (≈ 20.2 mM)
[2]; 2-propanol, solvent 2-Propanol, 50° C., read-out: Approximate Solubility (50° C.)
  solubility: 14 mg/mL (≈ 16.7 mM)
[2]; 2-propanol:water (50:50% v/v), solvent 2-propanol:water (50:50% v/v), 50° C., read-out: Approximate Solubility (50° C.)
  solubility: ~100 mg/mL (≈ 119 mM)
[2]; DMSO:acetone (50:50% v/v), solvent DMSO:acetone (50:50% v/v), 50° C., read-out: Approximate Solubility (50° C.)
  solubility: ≥ 200 mg/mL
[2]; DMSO:water (50:50% v/v), solvent DMSO:water (50:50% v/v), 50° C., read-out: Approximate Solubility (50° C.)
  solubility: 24 mg/mL (≈ 28.6 mM)
[2]; acetone, solvent Acetone, 50° C., read-out: Approximate Solubility (50° C.)
  solubility: < 10 mg/mL
[2]; acetone:water (50:50% v/v), solvent Acetone:water (50:50% v/v), 50° C., read-out: Approximate Solubility (50° C.)
  solubility: 58 mg/mL (≈ 69 mM)
[2]; acetonitrile, solvent Acetonitrile, 50° C., read-out: Approximate Solubility (50° C.)
  solubility: < 10 mg/mL
[2]; acetonitrile:water (50:50% v/v), solvent Acetonitrile:water (50:50% v/v), 50° C., read-out: Approximate Solubility (50° C.)
  solubility: ≥ 200 mg/mL
[2]; all other solvent systems: acetone, dichloromethane, 2-butanol, 2-propanol, methyl ethyl ketone, toluene, THF, ethyl acetate, acetonitrile, read-out: Poor solubility
  solubility: ≤ 17 mg/mL
[2]; ethanol, solvent Ethanol, 50° C., read-out: Approximate Solubility (50° C.)
  solubility: ~140 mg/mL (≈ 167 mM)
[2]; ethanol:water (50:50% v/v), solvent Ethanol:water (50:50% v/v), 50° C., read-out: Approximate Solubility (50° C.)
  solubility: ~100 mg/mL (≈ 119 mM)
[2]; ethyl acetate, solvent Ethyl acetate, 50° C., read-out: Approximate Solubility (50° C.)
  solubility: < 10 mg/mL
[2]; in acetone:water (50:50 v/v), methanol:water (50:50 v/v) and DMSO:water (50:50 v/v), 50° C.
  solubility: 58 to 24 mg/mL
[2]; methanol, solvent Methanol, 50° C., read-out: Approximate Solubility (50° C.)
  solubility: ≥ 200 mg/mL
[2]; methanol:water (50:50% v/v), solvent Methanol:water (50:50% v/v), 50° C., read-out: Approximate Solubility (50° C.)
  solubility: 45 mg/mL (≈ 53.6 mM)
[2]; methyl ethyl ketone, solvent Methyl ethyl ketone, 50° C., read-out: Approximate Solubility (50° C.)
  solubility: < 10 mg/mL
[2]; tetrahydrofuran, solvent Tetrahydrofuran, 50° C., read-out: Approximate Solubility (50° C.)
  solubility: < 10 mg/mL
[2]; toluene, solvent Toluene, 50° C., read-out: Approximate Solubility (50° C.)
  solubility: < 10 mg/mL
[2]; trifluoroethanol, solvent Trifluoroethanol, 50° C., read-out: Approximate Solubility (50° C.)
  solubility: ≥ 200 mg/mL
[3]; between 40-90% RH, received, predominantly amorphous material
  Mass increase by GVS: ca. 10%
[3]; crystallized material compared with the amorphous input
  Hygroscopicity after crystallization: did not show an improvement in terms of hygroscopicity
[3]; received, predominantly amorphous material
  Hygroscopicity by GVS analysis: highly hygroscopic
